# Like-named read-outs stand apart in the source and are kept apart here.
# Legend:
# [1] = test system: right ventricular papillary muscle of dogs; assay: Intracellular microelectrode technique: action potential parameters, ventricular papillary muscle; design: species or system mongrel dogs
# Method: The method used is essentially in agreement with the method of Papp et al. [J. Cardiovascular Pharmacol. Ther. 1, 287-296 (1996)].
# Right ventricular papillary muscle and Purkinje's fibres were prepared from the hearts of mongrel dogs (weighing 5 to 10 kg each). The preparations were placed into an organ bath (37° C.) containing modified Tyrode's nutrient medium. The preparations were excited by a basal frequency of 1 Hz. During the experiments, the frequency of stimulation was varied under broad limits by a computer-guided stimulator. The intracellular action potentials were registered by using glass capillary microelectrodes filled with 3 N potassium chloride solution (standard intracellular microelectrode techniques). The resting potential (RP), the amplitude of the action potential (APA) as well as the duration of the action potential (APD) were measured by using an IBM 386 compatible computer by means of an own-developed software. The compounds under test were directly added into the organ bath after dilution of the stock solutions according to the final concentrations desired. The effects of the compounds were observed after an incubation time of 30 to 40 minutes.
# mice = assay: in vivo
# Method: (§1) Determination of the LD50 Value on Mice
# (§2) Animal: male CDI mice (starved) weighing 20 to 22 g each at the time of treatment.
# (§3) Observation period: 2 weeks.
# (§4) Vehicle: 1 to 2% of Tween-80 in distilled water or in physiological saline, respectively.
# (§5) Treatment volume 0.1 ml/10 g of body-weight.
# in vivo = settings: mouse, in vivo
# Method: as §1, §2, §3, §4, §5
# [2] = test system: occlusion and reperfusion arrhythmias in anaesthetized rabbits; assay: Occlusion and reperfusion induced arrhythmias following acute coronary artery ligation in anaesthetized rabbits; assay type: in vivo, male rabbits; settings: 0.03 mg/kg
# Method: The method used is essentially in agreement with the method of Thiemermann et al. [Br. J. Pharmacol. 97, pp. 401-408 (1989)].
# A loose surgical thread loop was placed round the left circumflex coronary artery of the heart following thoracotomy in pentobarbital (30 mg/kg i.v.) anaesthetized male rabbits (weighing 2 to 3 kg); both ends of the thread loop were led out from the chest through an elastic tube. Standard electrocardiogram was registered by using needle electrodes under the skin. The blood pressure of animals was continuously measured by using a catheter placed into the common carotid artery. After stabilization of the blood pressure and heart frequency, the loose loop was tightened to establish a regional myocardial ischaemia. After 10 minutes of ischaemia, the ligature was released and a reperfusion for 10 minutes was established. The survival, the incidence of arrhythmias, the time of onset of arrhythmia and the length of episodes were registered. The animals received physiological saline solution (control) intravenously (2 ml/kg) or 0.03 mg/kg of the compound of Example 15 or a 3 mg/kg dose of d-sotalol at 5 minutes before the occlusion.
# By using this method, it can be stated whether the compound under test would be effective for the protection from arrhythmias following coronary artery ligation.
# dog Purkinje's fibres = assay: Effect on early after-depolarization induced by dofetilide and BaCl2; settings: 2 μM; EAD induced by 1 μM dofetilide and 20 μM BaCl2
# Method: An early after-depolarization (EAD) was induced on dog Purkinje's fibres by the simultaneous use of 1 μM dofetilide and 20 μM BaCl2. These EAD-s were abolished by the addition of the compound (2 μM) of Example 15.
# [3] = test system: isolated right ventricular trabecule of dog heart; assay: Extracellular electrophysiological measurements: impulse conduction time and effective refractory period; design: species or system mongrel dogs; settings: for activation at 2 µM / activation at 10 µM: Canis lupus familiaris
# Method: Right ventricular trabecules were prepared from the heart of mongrel dogs (weighing 5 to 10 kg each). The surviving heart pieces were placed into an organ bath (37° C.) containing modified Tyrode's nutrient medium and excited by point stimulation with a basal frequency of 1 Hz. Extracellular bipolar platinum electrodes were placed on the surface of the preparations, by means of which the propagation of the superficial potentials were registered; thus, the determination of the time of impulse conduction or the rate of impulse conduction, respectively, and the effective refractory period (ERP) became possible. During our experiments,the frequency of stimulation was temporarily varied from 0.5 Hz up to 3 Hz. The tested compounds were directly added to the organ bath after dilution of the stock solution according to the desired final concentration.
# [4] = test system: right ventricular papillary muscle; assay: Measurement of the contractile force in vitro; design: species or system rabbits; settings: 1 Hz; expected therapeutic concentration
# Method: The method used is essentially in agreement with the method of Virag et al. [Gen. Pharmac. 27, pp. 551-556 (1996)].
# Papillary muscles of hearts of rabbits (weighing 2 to 3 kg each) were prepared and placed into an organ bath (37° C.) containing modified Tyrode's nutrient medium. The preparations were stimulated by point-stimulation with a basal frequency of 1 Hz. The contractile force was measured by using an auxotonic method. The compounds under test were directly added into the organ bath after dilution of the stock solution according to the final concentration desired. The effects of compounds were observed after an incubation period of 30 to 45 minutes.
# Using this method used information can be obtained concerning the direct cardiac effects of the compounds investigated. The effect of the compound of Example 15 on the contractile force is illustrated on the right ventricular papillary muscle at a frequency of 1 Hz in FIG. 2.
# [5] = Table 4, ventricular muscle, 5 μM, 1 Hz, N = 6
# [6] = 1 Hz, read-out: Prolongation (%) of ERP
# [7] = 1 Hz, read-out: Prolongation (%) of impulse conduction time
# [8] = 3 Hz, read-out: Prolongation (%) of ERP
# [9] = 3 Hz, read-out: Prolongation (%) of impulse conduction time
compound,measurement,setting,value
"Cc1cccc(C)c1OCC(C)N(C)CCc1ccc(NS(C)(=O)=O)cc1.Cl (stereo not drawn) [Example 15, N-[4-[2-[N-Methyl-N-[2-(2,6-dimethylphenoxy)-1-methylethyl]amino]ethyl]phenyl]methanesulfonamide hydrochloride]",APA (amplitude of the action potential),[1]; 5 μM,106 mV
same,APD50 (time of 50% repolarization),[1]; 5 μM,210 ms
same,APD90 (time of 90% repolarization),[1]; 5 μM,261 ms
same,RP (resting potential),[1]; 5 μM,-85 mV
same,Recovery Ampl,[1]; 5 μM,83.6 V/s
same,Recovery Ampl/Plateau,[1]; 5 μM,0.35
same,Recovery Plateau,[1]; 5 μM,245.5 V/s
same,Vmax (maximum rate of depolarization),[1]; 5 μM,203 V/s
same,difference between the effects of Example 15 and its enantiomers (in words),[1]; 5 μM,No essential difference could be observed
same,Trecovery (recovery time constant of Vmax),"[1]; 5 μM, Gy: kinetics of rapid restoration",270.1 ms
same,effect on APD in ventricular muscle (in words),"[1]; 5 μM, ventricular muscle of the dog",prolonged APD in the ventricular muscle of the dog
same,APA,[1]; [5],106.3 ± 2.0 mV
same,APD50,[1]; [5],209.5 ± 7.1 ms
same,APD90,[1]; [5],260.5 ± 6.5 mS
same,RP,[1]; [5],-84.5 ± 1.3 mV
same,Vmax,[1]; [5],203.0 ± 11.4 V/s
same,Vmax time of recovery T,[1]; [5],270.1 ± 14.4 ms
same,Vmax time of recovery amplitude,[1]; [5],83.6 ± 13.5 V/s
same,"Vmax time of recovery amplitude, percentage in parentheses",[1]; [5],35 ± 5%
same,Vmax time of recovery plateau phase,[1]; [5],245.5 ± 28.0 V/s
same,effect on duration of the action potential (in words),[1]; concentrations of Table 2,simultaneous prolongation of duration of the action potential (APD)
same,effect on Vmax (in words),"[1]; rapid recovery kinetics, concentrations of Table 2",mexiletine-like inhibition of Vmax
same,cause of death,mice; i.p.,respiratory paralysis
same,Mortality,mice; i.p. 150 mg/kg,1/10
same,Mortality,mice; i.p. 175 mg/kg,7/10
same,Mortality,mice; i.p. 200 mg/kg,9/10
same,cause of death,mice; p.o.,respiratory paralysis
same,Mortality,mice; p.o. 500 mg/kg,0/5
same,Mortality,mice; p.o. 600 mg/kg,2/5
same,Mortality,mice; p.o. 700 mg/kg,5/5
same,LD50 at 336 h,in vivo; ip,170 mg/kg
same,LD50 at 336 h,in vivo; po,550 to 650 mg/kg
same,antiarrhythmic effect against reperfusion arrhythmias (in words),[2],strong antiarrhythmic effect
same,effect on early after-depolarization (EAD) (in words),dog Purkinje's fibres,abolished
same,activation at 2 µM,[3]; [6],11.6%
same,activation at 2 µM,[3]; [7],11.1%
same,activation at 2 µM,[3]; [8],13.6%
same,activation at 2 µM,[3]; [9],13.4%
same,activation at 10 µM,[3]; [6],22.8%
same,activation at 10 µM,[3]; [7],42%
same,activation at 10 µM,[3]; [8],31.3%
same,activation at 10 µM,[3]; [9],73.8%
same,effect on effective refractory period (in words),[3]; concentrations of Table 1,simultaneous prolongation of the effective refractory period (ERP)
same,effect on impulse conduction (in words),[3]; concentrations of Table 1,significantly prolonged the time of impulse conduction in a frequency-dependent manner
same,negative inotropic action (in words),[4],did not induce any negative inotropic action

# From patent US6265445A, “Antiarrhythmic compounds” (priority 1997, dated 2001)
